{"source": "patent US9186335B2", "about": "“Hot melt TTS for administering rotigotine” (UCB PHARMA GMBH, priority 2002, dated 2015)", "assay": "Rotigotine purity/stability in the hot-melt adhesive matrix by gradient HPLC with UV detection", "assay_type": "physicochemical", "conditions": "short-term heating to temperatures up to at least 160° C."}
{"smiles": "CCCN(CCc1cccs1)[C@H]1CCc2c(O)cccc2C1", "note": "[Rotigotine, (−)-5,6,7,8-tetrahydro-6-[propyl[2-(2-thienyl)ethyl)amino]-1-napththol]", "values": [{"measurement": "stability under heating", "result": "remains stable"}]}
